The subject of test [1] is cGAS–STING signaling pathway. Kind of test: Western blot of cGAS–STING pathway activation. Format: cell-based, human. The note with it: MDA-MB-436 cells, 48 h. How it is done:
(§1) Western blot analysis was performed as previously described, and all western blot analyses were performed at least three times.
(§2) Western blot analysis was performed as previously described. Briefly, whole cell or tissue lysates were prepared using ice-cold Nonidet P-40 buffer mixed with protease and phosphatase inhibitors (Roche, IN, USA) and centrifuged at 14,000 × g at 4 °C for 10 min. The protein lysates were fractionated by sodium dodecyl sulfate–polyacrylamide gel electrophoresis (SDS–PAGE) and transferred to polyvinylidene fluoride (PVDF) membranes (Merck, Darmstadt, Germany). Membranes were incubated in 1× TBST buffer containing 5% nonfat powdered milk at room temperature for 2 h. The indicated primary antibody was incubated with PVDF membranes, followed by a washing step using 1× TBST and a secondary antibody conjugated to HRP. Signal detection was carried out using the Western ECL Substrate kit (Bio-Rad, Hercules, CA, USA). […]
Background: In western blotting, separated proteins are transferred to a membrane and probed.

The subject of a further test is RAD51. The test can be described thus: Western blot of RAD51 expression in TNBC cells. In kind it is cell-based, human. As to conditions: 2.5 μM compared with the positive controls at 5 μM, 24 h. How it is done:
as §1, §2

Test [2] has as its system MDA-MB-436, MDA-MB-231, and 4T1 cell-derived xenografts. The test can be described thus: Antitumor effect in tumor-bearing mice. In kind it is in vivo. As to conditions: B102 15 mg/kg or B302 50 mg/kg, intraperitoneal, once daily, versus vehicle. From the text: MDA-MB-436, MDA-MB-231, and 4T1 cells were orthotopically injected into the fat pads of 6- to 7-week-old female NOD-Prkdc^scid Il2rg^em1Smoc (M-NSG), BALB/c nude and BALB/c mice, respectively. Fourteen 6-week-old female MMTV-PyMT mice were divided into two groups. The […] in each group were littermates. All animal procedures were approved by the Institutional Animal Care and Use Committee at Shenzhen University.
MDA-MB-436 cells (5 × 10^6) were suspended in PBS and Matrigel (Corning) at a 1:1 ratio and orthotopically injected into the fat pads of 6- to 7-week-old female NOD-Prkdc^scid Il2rg^em1Smoc (M-NSG) mice from the Shanghai Model Organisms Center, Inc. MDA-MB-231 cells (5 × 10^6) were suspended in PBS orthotopically injected into the fat pads of 6- to 7-week-old female BALB/c nude mice from the Shanghai Model Organisms Center, Inc. 4T1 cells (1 × 10^6) were suspended in PBS and injected into the fat pads of 6- to 7-week-old […] BALB/c mice from GemPharmatech Co., Ltd. When the tumor size reached 100 mm^3, the mice were randomly divided into three treatment groups without blinding: B102 (15 mg/kg), B302 (50 mg/kg) or vehicle [10% N,N-dimethylacetamide (DMAC, Sangon Biotech) and 6% polyethylene glycol 12-hydroxystearate (Solutol HS-15, MedChem Express, Monmouth Junction, NJ, USA) in saline] treatment via an intraperitoneal injection once daily. […]

With `Nc1cc(F)ccc1NC(=O)CCc1ccc(CN2CCN(C(=O)c3cc(Cc4n[nH]c(=O)c5ccccc45)ccc3F)CC2)cc1` [Compound B302], the “activation of the cGAS–STING signaling pathway” value in test [1] is “concentration-dependent activation”.
With `Nc1cc(F)ccc1NC(=O)/C=C/c1ccc(CN2CCN(C(=O)c3cc(Cc4n[nH]c(=O)c5ccccc45)ccc3F)CC2)cc1` [Compound B102], the “inhibitory effect on RAD51” value in the test on RAD51 is reported as “more potent inhibitory effect on RAD51”. In addition, in test [2], the tumor growth entry is reported as “robust inhibition of tumor growth at low doses”.

These data come from paper PMC10770036, “Novel dual inhibitors of PARP and HDAC induce intratumoral STING-mediated antitumor immunity in triple-negative breast cancer” (Cell Death & Disease, 2024).
